Experimental data reported in the SangsterLogP compilation.

SMILES: NS(=O)(=O)c1ccccc1Cl
- logP: 0.74

SMILES: C1CCNC1
- logP: 0.46

SMILES: CNC(=O)CNC(C)=O
- logP: -1.56

SMILES: FCF
- logP: 0.2

SMILES: Brc1ccc2ncccc2c1
- logP: 2.83

SMILES: Cc1cn([C@H]2C[C@H](O)[C@@H](CO)O2)c(=O)[nH]c1=O
- logP: -0.93

SMILES: CCCNCC(C)C
- logP: 2.07

SMILES: CCCSc1nnc(C(C)C)c(=O)n1N
- logP: 2.12

SMILES: Cc1c[n+]([O-])c2ccccc2c1[N+](=O)[O-]
- logP: 1.06

SMILES: O=C(O)c1ccc(O)cc1
- logP: 1.58

SMILES: NC(=O)Cc1cccnc1
- logP: -0.71

SMILES: CNCc1ccccc1
- logP: 1.52

SMILES: CNC(=O)Oc1cccc(C)c1
- logP: 1.7

SMILES: CCCCCN
- logP: 1.49

SMILES: O=C(O)c1ccc(O)cc1O
- logP: 1.63

SMILES: c1ccc(-c2ncc[nH]2)cc1
- logP: 1.88

SMILES: Cn1c([N+](=O)[O-])cnc1COC(N)=O
- logP: -0.38

SMILES: CN(C)c1ccc(S(N)(=O)=O)cc1
- logP: 0.76

SMILES: CN(c1ccccc1)c1ccccc1
- logP: 3.9

SMILES: O=C(O)c1ccc(F)cc1
- logP: 2.07

SMILES: Nc1ccccc1Cl
- logP: 1.9

SMILES: CNC(=O)c1ccccc1
- logP: 0.86

SMILES: O=[N+]([O-])c1cc(Cl)c(O)c(Cl)c1
- logP: 2.94

SMILES: O=Nc1c(O)ccc2ccccc12
- logP: 2.28

SMILES: O=[N+]([O-])/C=C/c1cc([N+](=O)[O-])ccc1Cl
- logP: 2.23

SMILES: Nc1ccc(C(=O)NCC(=O)O)cc1
- logP: -0.89

SMILES: O=C1NC(=O)C(c2ccccc2)(c2ccccc2)C(=O)N1
- logP: 1.96

SMILES: CC(C)CN
- logP: 0.73

SMILES: CC(=O)c1ccncc1
- logP: 0.48

SMILES: C=CCN1CC[C@]23c4c5ccc(O)c4O[C@H]2[C@@H](O)C=C[C@H]3[C@H]1C5
- logP: 1.86

SMILES: COC(=O)C(C#N)=NNc1cc(Cl)cc(Cl)c1
- logP: 4.5

SMILES: Cc1cc(O)c(C(C)(C)C)cc1CC(N)=O
- logP: 2.67

SMILES: COC(=O)C(C#N)=NNc1c(Cl)cc(C(F)(F)F)cc1Cl
- logP: 4.36

SMILES: O=C(O)c1cccc(Cl)c1
- logP: 2.68

SMILES: COc1ccc(NS(=O)(=O)c2ccc(N)cc2)cc1
- logP: 1.51

SMILES: Cc1ncc(CO)c(CN)c1O
- logP: -1.3

SMILES: OC1CCCCC1
- logP: 1.23

SMILES: CN(C)C
- logP: 0.16

SMILES: Clc1ccccc1Cl
- logP: 3.43

SMILES: O=[N+]([O-])c1ccc(Cl)cc1
- logP: 2.39

SMILES: Nc1ccc(C(=O)O)cc1Cl
- logP: 1.52

SMILES: NC(=O)Cc1ccncc1
- logP: -0.65

SMILES: NNC(=O)c1ccnc(Cl)c1
- logP: 0.11

SMILES: c1ccc2[nH]nnc2c1
- logP: 1.44

SMILES: CCC(C)C1(CC)C(=O)NC(=O)NC1=O (configuration not stated)
- logP: 1.65

SMILES: [O-][n+]1ccc(Cl)c2ccccc21
- logP: 1.08

SMILES: Nc1nc(O)c2ncn([C@H]3CC[C@@H](CO)O3)c2n1
- logP: -1.01

SMILES: Cc1cc(Cl)ccc1NN=C(C#N)C(=O)C(C)C
- logP: 4.31

SMILES: CC1(C)S[C@@H]2[C@H](NC(=O)COc3ccccc3)C(=O)N2[C@H]1C(=O)O
- logP: 2.09

SMILES: Clc1cccc(-c2ccccc2)c1
- logP: 4.58

SMILES: CCN(CC)CCNC(=O)c1ccc(N)cc1
- logP: 0.88

SMILES: O=[N+]([O-])c1ccccc1
- logP: 1.85

SMILES: Cc1cn([C@H]2CC[C@@H](CO)O2)c(=O)[nH]c1=O
- logP: -0.6

SMILES: Cc1cc(C)c(C)cc1C
- logP: 4

SMILES: O=[N+]([O-])c1ccc(Br)cc1
- logP: 2.55

SMILES: CCc1ccccc1Cl
- logP: 2.95

SMILES: S=C=Nc1ccccc1
- logP: 3.28

SMILES: Nc1ccccc1O
- logP: 0.62

SMILES: CC(C)N(N=O)C(C)C
- logP: 1.38

SMILES: CCI
- logP: 2

SMILES: CO/N=C/c1ccccc1
- logP: 2.53

SMILES: CCn1cc(C(=O)O)c(=O)c2ccc(C)nc21
- logP: 1.59

SMILES: O=C(O)COc1cccc(Br)c1
- logP: 2.22

SMILES: Nc1nc2[nH]nnc2c(=O)[nH]1
- logP: -0.71

SMILES: Nc1ccc(C(=O)O)cc1Br
- logP: 1.4

SMILES: COc1ccc2c(c1)N(CCCN(C)C)c1ccccc1S2
- logP: 4.9

SMILES: CNc1ccc(S(N)(=O)=O)cc1
- logP: 0.08

SMILES: NS(=O)(=O)c1ccc(Cl)c(Cl)c1
- logP: 1.44

SMILES: COc1ccccc1
- logP: 2.11

SMILES: O=C1C=CC(=NO)C=C1
- logP: 1.08

SMILES: CC[C@@H]1C(=O)OC[C@@H]1Cc1cncn1C
- logP: 0.12

SMILES: Nc1ccc2cc3ccccc3nc2c1
- logP: 2.77

SMILES: O=C1CC2OCC=C3CN4CC[C@]56c7ccccc7N1C5[C@H]2[C@H]3C[C@H]46 (some centres not stated)
- logP: 1.93

SMILES: Nc1ccn([C@H]2C[C@H](F)[C@@H](CO)O2)c(=O)n1
- logP: -0.89

SMILES: CC(N)C(=O)O (racemic)
- logP: -2.96

SMILES: COc1ccccc1O
- logP: 1.32

SMILES: O=C(O)c1ccc(I)cc1
- logP: 3.02

SMILES: CC1(C)SC2C(NC(=O)C(N)c3ccc(O)cc3)C(=O)N2C1C(=O)O (configuration not stated)
- logP: 0.87

SMILES: Cc1c[nH]c(=O)[nH]c1=O
- logP: -0.62

SMILES: ClCCl
- logP: 1.25

SMILES: Cc1ccnc2c(O)cccc12
- logP: 2.41

SMILES: c1cnc2c(c1)ccc1ncccc12
- logP: 2.51

SMILES: Clc1ccc(-c2ccccc2)cc1
- logP: 4.61

SMILES: Cc1cc(C)cc(O)c1
- logP: 2.35

SMILES: CCOc1ccc([N+](=O)[O-])cc1
- logP: 2.53

SMILES: CC(C)(C)CO
- logP: 1.31

SMILES: CO
- logP: -0.77

SMILES: O=C(O)CCCc1ccccc1
- logP: 2.42

SMILES: C=CCOc1ccc(CC(=O)O)cc1Cl
- logP: 2.48

SMILES: c1cnccn1
- logP: -0.26

SMILES: O=C(O)COC1Cc2ccccc2C1
- logP: 2.33

SMILES: Oc1cccc(F)c1
- logP: 1.93

SMILES: Nc1ncnc2c1ncn2[C@H]1C=C[C@@H](CO)O1
- logP: -0.5

SMILES: c1ccoc1
- logP: 1.34

SMILES: CCOc1cccc(OC(=O)NC)c1
- logP: 1.75

SMILES: O=C(/C=C/c1ccccc1)c1ccccc1
- logP: 3.08

SMILES: CC(=O)c1ccc(OCC(=O)O)cc1
- logP: 0.87

SMILES: Cc1ccccc1O
- logP: 1.95

SMILES: O=C1O[C@H]([C@@H](O)CO)C(O)=C1O
- logP: -1.85

SMILES: CCOC(=O)c1ccc(O)cc1
- logP: 2.47

SMILES: CCBr
- logP: 1.61

SMILES: OCCCCc1ccccc1
- logP: 2.35

SMILES: O=C(O)c1cccc(I)c1
- logP: 3.13

SMILES: CCOc1cccc(O)c1
- logP: 1.98

SMILES: COc1ccccc1C(N)=O
- logP: 0.86

SMILES: Nc1ccc(C(F)(F)F)cc1
- logP: 1.95

SMILES: O=C(O)c1cccc([N+](=O)[O-])c1
- logP: 1.83

SMILES: O=[N+]([O-])c1cc[n+]([O-])c2c(F)cccc12
- logP: 1

SMILES: COC1=CC(=O)C[C@@H](C)[C@]12Oc1c(Cl)c(OC)cc(OC)c1C2=O
- logP: 2.18

SMILES: CCCN(CCC)S(=O)(=O)c1ccc(C(=O)O)cc1
- logP: 3.21

SMILES: CCNC
- logP: 0.15

SMILES: Cc1cnccn1
- logP: 0.21

SMILES: Oc1c(Cl)cc(Cl)c(Cl)c1Cl
- logP: 4.45

SMILES: Brc1nc(Br)c(Br)[nH]1
- logP: 1.96

SMILES: COc1ccc(O)cc1
- logP: 1.58

SMILES: C=CCc1ccccc1OCC(O)CNC(C)C (configuration not stated)
- logP: 3.1

SMILES: NCCCC[C@H](N)C(=O)O
- logP: -3.05

SMILES: CCCNCCC
- logP: 1.67

SMILES: COC(=O)C(C#N)=NNc1ccc(S(=O)(=O)C(F)(F)F)cc1
- logP: 4.22

SMILES: O=C1NS(=O)(=O)c2ccccc21
- logP: 0.91

SMILES: Cc1cccc(C)n1
- logP: 1.68

SMILES: Nc1ccccn1
- logP: 0.48

SMILES: CC(=O)C(C#N)=NNc1cccc(Cl)c1
- logP: 3.9

SMILES: N#Cc1ccc(/C=C/NC=O)cc1
- logP: 1.62

SMILES: NS(=O)(=O)c1cc2c(cc1Cl)N=CNS2(=O)=O
- logP: -0.24

SMILES: CNC(=O)Oc1cccc(C#N)c1
- logP: 0.97

SMILES: N#Cc1ccccn1
- logP: 0.45

SMILES: O=[N+]([O-])c1cccc(O)c1
- logP: 2

SMILES: Oc1ccc(O)cc1
- logP: 0.59

SMILES: CCCCCBr
- logP: 3.37

SMILES: O=[N+]([O-])c1ccc(O)c([N+](=O)[O-])c1
- logP: 1.67

SMILES: Cc1ccc(CC(=O)O)cc1
- logP: 1.86

SMILES: O=C1C=CC(=O)C=C1
- logP: 0.2

SMILES: COc1ccc(NC(C)=O)cc1
- logP: 1.03

SMILES: Cc1ccc(C)c2ccccc12
- logP: 4.37

SMILES: CN1C(=O)CC(=O)N(c2ccccc2)c2cc(Cl)ccc21
- logP: 2.12

SMILES: CCOC1(c2ccccc2)OCCN(C)C1C (configuration not stated)
- logP: 2.27

SMILES: Clc1ccccc1
- logP: 2.84

SMILES: Cc1ccc(Cc2cnc(NCCSCc3ccc(C(C)(C)N)o3)[nH]c2=O)cn1
- logP: 2.06

SMILES: COCc1ccccc1
- logP: 1.92

SMILES: CC/C(=C/c1ccccc1)[N+](=O)[O-]
- logP: 2.86

SMILES: Brc1ccccc1Br
- logP: 3.64

SMILES: NS(=O)(=O)c1ccccc1
- logP: 0.31

SMILES: C/C=N/O
- logP: -0.13

SMILES: CC(C)c1nnc(N2CCOCC2)n(N)c1=O
- logP: 0.49

SMILES: Cc1cccc(C)c1O
- logP: 2.36

SMILES: CCc1ccccn1
- logP: 1.69

SMILES: CC(=O)Oc1ccccc1C(=O)O
- logP: 1.19

SMILES: COC(=O)[C@H]1[C@@H](OC(=O)c2ccccc2)C[C@@H]2CC[C@H]1N2C
- logP: 2.3

SMILES: O=c1[nH]cc(F)c(=O)[nH]1
- logP: -0.89

SMILES: NC(=O)CCCc1ccccn1
- logP: -0.09

SMILES: CC(=O)Nc1ccc(I)cc1
- logP: 2.71

SMILES: COc1ccc(C(C)=O)cc1
- logP: 1.74

SMILES: CCCCCCCN
- logP: 2.57

SMILES: Cc1cn([C@H]2C[C@H](O)[C@@H](CO)O2)c(=O)[nH]c1=S
- logP: -0.07

SMILES: C#CC
- logP: 0.94

SMILES: Oc1c(F)c(F)c(F)c(F)c1F
- logP: 3.23

SMILES: O=C(O)c1ccccc1Cl
- logP: 2.05

SMILES: COc1ccccc1NC(C)=O
- logP: 0.67

SMILES: O=C1OC(=O)c2ccccc21
- logP: 1.6

SMILES: NC(=O)CCCCc1ccccn1
- logP: 0.38

SMILES: O=C1CC(=O)NC(=O)N1
- logP: -1.47

SMILES: Cc1cccc(C)c1
- logP: 3.2

SMILES: CNCC(O)c1ccc(O)c(O)c1 (configuration not stated)
- logP: -1.37

SMILES: CN1CCC(=C2c3ccccc3C=Cc3ccccc32)CC1
- logP: 4.69

SMILES: Oc1ccccc1I
- logP: 2.65

SMILES: CNC(=O)Oc1ccc(OC)cc1
- logP: 1.2

SMILES: COC
- logP: 0.1

SMILES: O=[N+]([O-])c1cc2ccccc2[n+]([O-])c1
- logP: 0.56

SMILES: O=C(O)COc1ccccc1F
- logP: 1.39

SMILES: Brc1cnc2ccccc2c1
- logP: 3.03

SMILES: Oc1cccc(Br)c1
- logP: 2.63

SMILES: O=C(NC(O)Cc1ccc([N+](=O)[O-])cc1)C(F)(F)F (configuration not stated)
- logP: 1.46

SMILES: CCCCC1(CC)C(=O)NC(=O)NC1=O
- logP: 1.73

SMILES: O=C1CN=C(c2ccccc2)c2cc(Cl)ccc2N1CC1CC1
- logP: 3.73

SMILES: CN(C)CCCN1c2ccccc2Sc2ccccc21
- logP: 4.55

SMILES: c1cncnc1
- logP: -0.4

SMILES: NC(=O)NO
- logP: -1.8

SMILES: c1ccc(-c2cccc(-c3ccccc3)n2)cc1
- logP: 4.82

SMILES: CN(C)S(=O)(=O)c1ccc(N)cc1
- logP: 0.67

SMILES: C1CNCCN1
- logP: -1.5

SMILES: Nc1ccc(S(=O)(=O)c2ccc(N)cc2)cc1
- logP: 0.97
